pEC50: −log10 of the molar value. Like-named read-outs stand apart in the source and are kept apart here.
Legend:
[1] = tested on: L. donovani intracellular amastigotes in B10R cells; assay: UCSD L. donovani infection assay (Assay Conditions D); assay type: cell-based; conditions: B10R cells; for L. donovani amastigotes EC75 (B10R cells): footnote d; for pEC50: Leishmania donovani, values marked d, read-out: L. donovani amastigotes EC50 (B10R cells)
Method in brief: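 Compounds, either single-point at 10 μM or 10-point 2-fold series (3 technical, 2 biological replicates), were incubated 72 h at 37° C. with B10R host cells co-seeded with day-7 stationary L. donovani promastigotes (20:1). DAPI-stained nuclei imaging yielded intracellular parasite EC50 and host-cell CC50.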

[2] = UCSD infection assay, host cell cytotoxicity (CC50); assay type: cell-based; conditions: mouse, B10R host cells infected with L. donovani
Procedure: (§1) Assay Conditions D: B10R cells (CVCL_0155) were seeded at 300 cells/well, and L. donovani WT promastigotes in stationary phase (7th day after passage) were added at 6,000 parasites/well (ratio of 20 parasites/cell). Both cells and parasites were seeded in DMEM High-Glucose medium (Gibco, cat. no. 11995065) containing 5% Fetal Bovine Serum (Sigma-Aldrich, cat. no. F2442) and 1% Penicillin-Streptomycin (Gibco, cat. no. 15140122). Cells and parasites were incubated in the presence of the compounds for 72 h at 37° C. and 5% C02. Plates were then fixed with 4% formaldehyde solution for at least 1 h, then washed with 1×PBS and stained with 5 μg/mL DAPI. Plates were read using an ImageXpress microscope (Molecular Devices) and analyzed by MetaXpress software (Molecular Devices) using a custom module optimized for this assay. […] Compounds were tested in a 10-point 2-fold serial dilution in 3 technical replicates, and 2 biological replicates. After 72 h, plates were fixed and stained with DAPI as described above. Images were acquired on an ImageXpress microscope, and analyzed using the MetaXpress custom module.
as §1, with “Compounds were obtained as 0.2 μmoles of dried film for primary single point screening. Each compound was diluted in DMSO to 10 μM final testing concentration. These compounds were tested in 2 biological replicates. The compounds were pre-spotted onto 384-well assay plates in single concentration.” for “Assay Conditions D:”, “CO2.” for “C02.”, “module. The DRCs were plotted, half-effective concentration (EC50) and half-cytotoxic concentration (CC50) were calculated using GraphPad Prism Software, version 6.05 (GraphPad Software, San Diego, CA).” for “module.”

[3] = GSK inMac assay, host cell toxicity readout (LD MAC); assay type: cell-based, human; conditions: human
Method in brief: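 MAC EC50 reflects THP-1 host cell counts, measured within GSK's inMac L. donovani infection assay that also scores intracellular amastigotes and infected-cell percentage.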

[4] = tested on: L. donovani intracellular amastigotes infecting THP-1 macrophages; assay: GSK intramacrophage L. donovani assay (LD AMMAC, inMac; Assay Conditions C); assay type: cell-based; conditions: Leishmania donovani; for EC50: values marked c: THP-1 cells, read-out: L. donovani amastigotes EC50 (μM, THP-1 or B10R cells); for pEC50: THP-1 cells, values marked c, read-out: L. donovani amastigotes EC50 (THP-1 cells)
Method in brief: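 EC50 values come from counting amastigotes per infected THP-1 macrophage (AMMAC). Parallel read-outs give percentage of infected cells per well (INFCELL) and a macrophage-number toxicity EC50 (MAC).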

[5] = footnote c, read-out: THP-1 Host Cell CC50

SMILES | L. donovani amastigotes EC75 (μM, B10R cells) [1] [µM] | CC50 at 72 h ([2]; host B10R cells) [µM] | also measured
CC(C)Cc1n[nH]c2c1C(c1ccccc1F)N(c1ccc(N3CCN(C)CC3)nc1)C2=O (centres unmarked) [BUCMD00724] | >10 | 6.31 | –
COc1ccc(N2C(=O)c3[nH]nc(CC(C)C)c3C2c2ccc(C)s2)cc1 (centres unmarked) [CMLD011123] | 2.5 | 15.8 | CC50 ([3]; host THP-1 cells): 20 µM; EC50 [4]: 5 µM
CC(C)Cc1n[nH]c2c1C(c1ccc(F)cc1)N(c1ccc3c(c1)OCCO3)C2=O (centres unmarked) [CMLD011101] | – | – | CC50 [3, 5]: 25.1 µM; pEC50 [4]: 5.49; L. donovani amastigotes EC75 (B10R cells) [1]: 1.2 µM; CC50 at 72 h ([2]; footnote d): 15.8 µM
CC(C)Cc1n[nH]c2c1C(c1ccccc1C(F)(F)F)N(c1ccc(N3CCN(C)CC3)nc1)C2=O (centres unmarked) [BUCMD00723] | 10.0 | 7.94 | –
Cc1ccc(N2C(=O)c3[nH]nc(CC(C)C)c3C2c2ccc(Cl)cc2F)cn1 (centres unmarked) [BUCMD00627] | >10 | 10 | –
Cc1ccccc1C1c2c(CC(C)C)n[nH]c2C(=O)N1c1ccc(C(=O)N2CCCC2)cc1 (centres unmarked) [BUCMD00713] | >10 | 10 | –
CC(C)Cc1n[nH]c2c1C(c1ccccc1Br)N(c1ccc3c(c1)OCC(=O)N3)C2=O (centres unmarked) [CMLD011497] | 0.9 | 6.31 | CC50 ([3]; host THP-1 cells): 20 µM; EC50 [4]: 2 µM
CC(C)Cc1n[nH]c2c1C(c1ccc(Cl)cc1Cl)N(c1ccc(C(=O)N3CCCC3)cc1)C2=O (centres unmarked) [BUCMD00712] | >10 | 1.58 | –
COc1ccc(N2C(=O)c3[nH]nc(CC(C)C)c3C2c2ccccc2C)nc1 (centres unmarked) [BUCMD00645] | >10 | 20 | –
CC(C)Cc1n[nH]c2c1C(c1ccccc1Br)N(c1ccc(Br)cc1)C2=O (centres unmarked) [CMLD011551] | – | – | CC50 [3, 5]: 5 µM; L. donovani amastigotes EC75 (B10R cells) [1]: 0.5 µM; pEC50 [1]: 6.40; CC50 at 72 h ([2]; footnote d): 6.31 µM
COc1ccc(N2C(=O)c3[nH]nc(CC(C)C)c3C2c2ccccc2Br)cc1F (centres unmarked) [CMLD012217] | – | – | CC50 [3, 5]: 3 µM; L. donovani amastigotes EC75 (B10R cells) [1]: 0.5 µM; pEC50 [1]: 6.40; CC50 at 72 h ([2]; footnote d): 3.98 µM
CC(C)Cc1n[nH]c2c1C(c1ccc(F)cc1)N(c1ccc(N(C)C)cc1)C2=O (centres unmarked) [CMLD011039] | – | – | CC50 [3, 5]: 39.8 µM; pEC50 [4]: 6.00; L. donovani amastigotes EC75 (B10R cells) [1]: 0.3 µM; CC50 at 72 h ([2]; footnote d): 6.31 µM
COc1ccc(N2C(=O)c3[nH]nc(CC(C)C)c3C2c2ccc(Br)cc2F)nc1 (centres unmarked) [BUCMD00648] | >10 | 3.98 | –
CC(C)Cc1n[nH]c2c1C(c1ccccc1Cl)N(c1ccc(N(C)C)cc1)C2=O (centres unmarked) [CMLD010920] | – | – | CC50 [3, 5]: 7.3 µM; L. donovani amastigotes EC75 (B10R cells) [1]: 0.3 µM; pEC50 [1]: 6.52; CC50 at 72 h ([2]; footnote d): 6.31 µM
COc1ccc(N2C(=O)c3[nH]nc(CC(C)C)c3[C@H]2c2ccc(F)cc2)cc1 [CMLD013629] | >10 | 20 | CC50 ([3]; host THP-1 cells): 25.1 µM; EC50 [4]: 10 µM
Cc1cc(F)ccc1C1c2c(CC(C)C)n[nH]c2C(=O)N1c1ccc(N2CCN(C)CC2)nc1 (centres unmarked) [BUCMD00717] | 1.0 | 7.94 | –
CC(C)Cc1n[nH]c2c1C(c1ccccc1C(F)(F)F)N(c1cncc(F)c1)C2=O (centres unmarked) [BUCMD00699] | 1.4 | 5.01 | –
C#CCCCCn1nc(CC(C)C)c2c1C(=O)N(c1ccc(OC)cc1)C2c1ccc(F)cc1 (centres unmarked) [BUCMD00741] | >10 | 10 | –
Cc1ccc(N2C(=O)c3[nH]nc(CC(C)C)c3C2c2ccccc2C)cn1 (centres unmarked) [BUCMD00628] | 3.2 | 15.8 | –

SMILES | L. donovani amastigotes EC75 (μM, B10R cells) [1] [µM] | CC50 at 72 h ([2]; host B10R cells) [µM] | also measured
COc1ccc(N2C(=O)c3[nH]nc(CC(C)C)c3[C@@H]2c2cccc(C(F)(F)F)c2)cn1 [BUCMD00805] | – | – | CC50 [3, 5]: 25.1 µM; pEC50 [4]: 5.30; L. donovani amastigotes EC75 (B10R cells) [1]: 1.6 µM; CC50 at 72 h ([2]; footnote d): 6.31 µM
CC(C)Cc1n[nH]c2c1C(c1cccc(C(F)(F)F)c1)N(c1ccc3c(c1)OCO3)C2=O (centres unmarked) [CMLD011139] | >10 | 12.6 | CC50 ([3]; host THP-1 cells): 20 µM; EC50 [4]: 3.2 µM
COc1ccccc1C1c2c(CC(C)C)n[nH]c2C(=O)N1c1ccc(Br)cc1 (centres unmarked) [CMLD011549] | – | – | CC50 [3, 5]: 1.1 µM; L. donovani amastigotes EC75 (B10R cells) [1]: 0.3 µM; pEC50 [1]: 6.70; CC50 at 72 h ([2]; footnote d): 1 µM
Cc1ccc(N2C(=O)c3[nH]nc(CC(C)C)c3C2c2ccc(F)cc2Cl)cn1 (centres unmarked) [BUCMD00642] | 1.3 | 10 | –
COc1ccc(N2C(=O)c3[nH]nc(CC(C)C)c3C2c2ccc(F)cc2C)nc1 (centres unmarked) [BUCMD00646] | >10 | 12.6 | –
COc1ccc(N2C(=O)c3[nH]nc(CC(C)C)c3C2c2ccccc2OC)cc1F (centres unmarked) [CMLD011566] | – | – | CC50 [3, 5]: 0.3 µM; L. donovani amastigotes EC75 (B10R cells) [1]: 0.4 µM; pEC50 [1]: 6.40; CC50 at 72 h ([2]; footnote d): 0.316 µM
COc1ccc(N2C(=O)c3[nH]nc(CC(C)C)c3[C@H]2c2ccccc2Br)cn1 [CMLD010977] | 1.0 | 15.8 | CC50 ([3]; host THP-1 cells): 25.1 µM; EC50 [4]: 2 µM
COc1ncc(N2C(=O)c3[nH]nc(CC(C)C)c3C2c2ccc(F)cc2Cl)cc1F (centres unmarked) [BUCMD00730] | – | – | L. donovani amastigotes EC75 (B10R cells) [1]: 0.6 µM; CC50 at 72 h ([2]; footnote d): 10 µM
Cc1ccc(N2C(=O)c3[nH]nc(CC(C)C)c3C2c2ccccc2Cl)cn1 (centres unmarked) [BUCMD00640] | 3.4 | 12.6 | –
Cc1ccc(N2C(=O)c3[nH]nc(CC(C)C)c3C2c2ccc(Br)cc2F)cn1 (centres unmarked) [BUCMD00641] | >10 | 12.6 | –
CC(C)Cc1n[nH]c2c1C(c1ccccc1F)N(c1cncc(F)c1)C2=O (centres unmarked) [BUCMD00700] | 1.3 | 10 | –
CC(C)Cc1n[nH]c2c1C(c1ccc(Cl)cc1Cl)N(c1ccc(N3CCN(C)CC3)nc1)C2=O (centres unmarked) [BUCMD00719] | >10 | 2 | –
CC(C)Cc1n[nH]c2c1C(c1ccc(F)cc1Cl)N(c1ccc(C(=O)N3CCCC3)cc1)C2=O (centres unmarked) [BUCMD00711] | >10 | 5.01 | –
CC(C)Cc1n[nH]c2c1C(c1ccc(F)cc1F)N(c1ccc(N3CCN(C)CC3)nc1)C2=O (centres unmarked) [BUCMD00722] | >10 | 7.94 | –
CC(C)Cc1n[nH]c2c1C(c1ccc(F)cc1F)N(c1ccc(C(=O)N3CCCC3)cc1)C2=O (centres unmarked) [BUCMD00714] | >10 | 10 | –
CC(C)Cc1n[nH]c2c1C(c1ccc(F)cc1Cl)N(c1ccc(N3CCN(C)CC3)nc1)C2=O (centres unmarked) [BUCMD00718] | 1.0 | 6.31 | –
COc1ccc(N2C(=O)c3[nH]nc(CC(C)C)c3C2c2ccccc2OC)cn1 (centres unmarked) [CMLD011567] | – | – | CC50 [3, 5]: > 20 µM; L. donovani amastigotes EC75 (B10R cells) [1]: 1.2 µM; pEC50 [1]: 5.96; CC50 at 72 h ([2]; footnote d): 20 µM
COc1ccc(N2C(=O)c3[nH]nc(CC(C)C)c3C2c2ccccc2Cl)nc1 (centres unmarked) [BUCMD00647] | >10 | 10 | –
CC(C)Cc1n[nH]c2c1C(c1ccc(F)c(F)c1)N(c1ccc(N3CCN(C)CC3)nc1)C2=O (centres unmarked) [BUCMD00725] | >10 | 7.94 | –

— patent publication US20230381142A1, “ANTILEISHMANIAL COMPOUNDS, COMPOSITIONS AND USE THEREOF” (TRUSTEES OF BOSTON UNIVERSITY, priority 2022, published 2023)
